Laboratory results published in patent US20240279220A1, “INDOLE COMPOUNDS AND METHODS OF USE” (Genzyme Corporation, priority 2021, published 2024).

How the values were obtained:
NBD1/3D = assay: Aggregation analysis using differential static light scattering (DSLS), NBD1 thermal stability; assay type: binding, Human; conditions: ΔTagg versus DMSO control; compound at 100 μM
Outline: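 Purified NBD1 at 0.2 mg/ml in S200 buffer (pH 7.6, 2 mM ATP, 5 mM MgCl2, 1% glycerol) was heated with compound at 1 °C/min to 70 °C. Tagg taken from the light-scattering curve inflection point; ΔTagg = compound Tagg minus mean DMSO control Tagg.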

CFTR = target: T1, CFTR (Homo sapiens, UniProt P13569, DEL508-508); assay: TECC24 recording of CFTR-mediated transepithelial chloride transport in ΔF508 homozygous CF-HBE cells; assay type: cell-based; conditions: 10 μM test agent, 48 hours incubation, AUC of forskolin-stimulated IEQ divided by vehicle AUC, primary CF-HBE cells
T1 construct: Primary human bronchial epithelial cells from a ΔF508 homozygous CF donor; host or cells: primary human bronchial epithelial cells (CF-HBE), ΔF508 homozygous donor
T1 sequence (P13569 with tags, fused parts or gaps DEL508-508): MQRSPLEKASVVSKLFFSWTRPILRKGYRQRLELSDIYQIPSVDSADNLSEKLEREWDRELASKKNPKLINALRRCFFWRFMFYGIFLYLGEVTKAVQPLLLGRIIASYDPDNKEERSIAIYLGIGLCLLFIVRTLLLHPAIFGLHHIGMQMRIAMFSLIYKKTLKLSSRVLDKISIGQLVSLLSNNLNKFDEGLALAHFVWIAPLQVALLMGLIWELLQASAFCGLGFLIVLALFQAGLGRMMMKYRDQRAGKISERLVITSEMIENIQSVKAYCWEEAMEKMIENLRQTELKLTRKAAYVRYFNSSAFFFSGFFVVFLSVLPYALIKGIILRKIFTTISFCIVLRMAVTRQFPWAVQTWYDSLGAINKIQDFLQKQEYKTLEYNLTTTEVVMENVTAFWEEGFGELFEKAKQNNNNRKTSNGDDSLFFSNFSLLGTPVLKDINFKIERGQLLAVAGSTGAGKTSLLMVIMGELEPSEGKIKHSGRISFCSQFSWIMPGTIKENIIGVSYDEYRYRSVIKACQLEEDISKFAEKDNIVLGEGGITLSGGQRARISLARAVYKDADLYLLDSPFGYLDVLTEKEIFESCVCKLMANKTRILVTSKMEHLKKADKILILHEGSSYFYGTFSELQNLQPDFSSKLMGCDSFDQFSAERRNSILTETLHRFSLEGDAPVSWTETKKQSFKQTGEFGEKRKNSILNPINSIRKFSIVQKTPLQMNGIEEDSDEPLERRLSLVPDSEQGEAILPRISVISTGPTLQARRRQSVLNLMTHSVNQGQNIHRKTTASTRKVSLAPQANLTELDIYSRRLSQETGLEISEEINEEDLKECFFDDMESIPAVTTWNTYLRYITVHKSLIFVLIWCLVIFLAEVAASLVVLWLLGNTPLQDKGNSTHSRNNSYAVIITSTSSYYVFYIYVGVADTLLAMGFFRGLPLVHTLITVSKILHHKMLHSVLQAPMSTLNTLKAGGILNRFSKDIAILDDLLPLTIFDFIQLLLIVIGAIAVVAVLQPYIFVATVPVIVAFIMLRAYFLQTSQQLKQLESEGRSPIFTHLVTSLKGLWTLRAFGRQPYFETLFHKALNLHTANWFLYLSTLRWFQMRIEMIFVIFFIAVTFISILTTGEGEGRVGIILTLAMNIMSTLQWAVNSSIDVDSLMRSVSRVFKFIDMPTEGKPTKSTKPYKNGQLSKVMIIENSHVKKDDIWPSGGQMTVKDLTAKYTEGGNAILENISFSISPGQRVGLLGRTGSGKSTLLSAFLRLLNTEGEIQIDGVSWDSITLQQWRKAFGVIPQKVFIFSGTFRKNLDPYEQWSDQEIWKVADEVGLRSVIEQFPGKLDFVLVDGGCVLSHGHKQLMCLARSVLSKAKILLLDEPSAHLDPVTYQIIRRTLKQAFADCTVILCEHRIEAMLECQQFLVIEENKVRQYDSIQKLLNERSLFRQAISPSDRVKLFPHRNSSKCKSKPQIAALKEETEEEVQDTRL
Method: The effects of a test agent on CFTR-mediated transepithelial chloride transport was measured using TECC24 recording analysis. Test agents were solubilized in DMSO. Solubilized test agents were mixed with incubation medium containing DMEM/F12, Ultroser G (2%; Crescent Chemical, catalog #67042), Hyclone Fetal Clone II (2%; GE Healthcare, catalog #SH30066.02), bovine brain extract (0.25%; Lonza, catalog #CC-4098), insulin (2.5 μg/mL), IL-13 (10 ng/mL), hydrocortisone (20 nM), transferrin (2.5 μg/mL), triiodothyronine (500 nM), ethanolamine (250 nM), epinephrine (1.5 μM), phosphoethanolamine (250 nM), and retinoic acid (10 nM). Primary human bronchial epithelial cells from a ΔF508 homozygous CF donor (CF-HBE cells; from University of North Carolina Cystic Fibrosis Tissue Procurement Center), grown on Transwell HTS 24-well cell culture inserts (Costar, catalog #3378), were exposed to test agents or controls dissolved in incubation medium. The CF-HBE cells were cultured at 36.5° C. for 48 hours before TECC24 recordings were performed in the presence or absence of test agent, a positive control or vehicle (DMSO).
Following incubation, the transwell cell culture inserts containing the test agent or control-treated CF-HBE cells were loaded onto a TECC24 apparatus (TECC v7 or MTECC v2; EP Design) to record the transepithelial voltage (VT) and resistance (TEER) using 4 AgCl electrodes per well configured in current-clamp mode. The apical and basolateral bath solutions both contained (in mM) 140 NaCl, 5 KCl, 2 CaCl2, 1 MgCl2, 10 Hepes, and 10 glucose (adjusted to pH 7.4 with NaOH). To inhibit basal Na+ absorption, the ENaC inhibitor benzamil (10 μM) was added to the bath. Then, the adenylate cyclase activator, forskolin (10 μM), was added to the bath to activate CFTR. The forskolin-stimulated Cl— transport was halted by addition of CFTR inhibitor-172 (20 μM) to the bath at the end of the experiment to confirm specificity. VT and TEER recordings were digitally acquired at routine intervals using TECC or MTECC software (EP Design). VT and TEER were transformed into equivalent transpeithelial Cl— current (IEQ), and the Area Under the Curve (AUC) of the IEQ timecourse between forskolin and CFTR inhibitor-172 addition is generated using Excel (Microsoft). Efficacy is expressed as the ratio of the test agent AUC divided by vehicle AUC. EC50s based on AUC are generated using the non-linear regression log(agonist) vs. response function in Prism software (Graphpad) with HillSlope fixed=1.
If a test agent increased the AUC of the forskolin-stimulated IEQ relative to vehicle in CF-HBE cells, and this increase was inhibited by CFTR inhibitor-172, then the test agent was considered a CFTR corrector.

| SMILES | DSLS NBD1/3D Human Stability delta-T (° C.) @ 100 (μM) (NBD1/3D) | TECC24 @ 10 μM over DMSO (AUC fold over DMSO) (CFTR) |
| --- | --- | --- |
| CS(=O)(=O)c1c(Oc2ccc(F)c(-c3ncc(C4(c5cccc(CCC(=O)O)c5)CCOC4)[nH]3)c2)c(F)cc2[nH]ccc12 (stereo not drawn) [Example 45, 3-(3-(3-(2-(2-Fluoro-5-((6-fluoro-4-(methylsulfonyl)-1H-indol-5-yl)oxy)phenyl)-1H-imidazol-5-yl)tetrahydrofuran-3-yl)phenyl)propanoic acid] | A (A: T ≥ 10° C.) | B (“B” refers to AUC @10 uM between 4-12) |
| CC(C#N)(c1cccc(CCC(=O)O)c1)c1c[nH]c(-c2cc(Oc3c(F)cc4[nH]ccc4c3CC(F)(F)F)ccc2F)n1 (stereo not drawn) [Example 52, 3-(3-(1-cyano-1-(2-(2-fluoro-5-((6-fluoro-4-(2,2,2-trifluoroethyl)-1H-indol-5-yl)oxy)phenyl)-1H-imidazol-4-yl)ethyl)phenyl)propanoic acid] | B (B: 5-10° C.) | B (“B” refers to AUC @10 uM between 4-12) |
| CO[C@]1(C)C[C@@](c2cc(F)cc(CCC(=O)O)c2)(c2cnc(-c3cc(Oc4c(F)c(F)c5[nH]ccc5c4S(C)(=O)=O)ccc3F)[nH]2)C1 [Example 74, 3-(3-((1r,3r)-1-(2-(5-((6,7-difluoro-4-(methylsulfonyl)-1H-indol-5-yl)oxy)-2-fluorophenyl)-1H-imidazol-5-yl)-3-methoxy-3-methylcyclobutyl)-5-fluorophenyl)propanoic acid] | A (A: T ≥ 10° C.) | A (“A” refers to AUC @10 uM >= 12) |
| CP(C)(=O)c1c(Oc2ccc(F)c(-c3ncc(C4(c5cc(F)cc(CCC(=O)O)c5)CC(F)(F)C4)[nH]3)c2)c(F)cc2[nH]ccc12 [Example 80, 3-(3-(1-(2-(5-((4-(dimethylphosphoryl)-6-fluoro-1H-indol-5-yl)oxy)-2-fluorophenyl)-1H-imidazol-5-yl)-3,3-difluorocyclobutyl)-5-fluorophenyl)propanoic acid] | A (A: T ≥ 10° C.) | C (“C” refers to AUC @ 10 uM <= 4) |
| COC(=O)CCc1cccc(C(O)c2cnc(-c3cccc(Oc4c(F)cc5[nH]ccc5c4-c4nccs4)c3)[nH]2)c1 (stereo not drawn) [Example 86, Methyl 3-(3-((2-(3-((6-fluoro-4-(thiazol-2-yl)-1H-indol-5-yl)oxy)phenyl)-1H-imidazol-5-yl)(hydroxy)methyl)phenyl)propanoate] | C (C: ≤5° C.) | C (“C” refers to AUC @ 10 uM <= 4) |
| CP(C)(=O)c1c(Oc2cccc(-c3nc(C(O)c4cccc(CCC(=O)O)c4)cs3)c2)c(F)cc2[nH]ccc12 (stereo not drawn) [Example 97, 3-(3-((2-(3-((4-(Dimethylphosphoryl)-6-fluoro-1H-indol-5-yl)oxy)phenyl)thiazol-4-yl)(hydroxy)methyl)phenyl)propanoic acid] | B (B: 5-10° C.) | C (“C” refers to AUC @ 10 uM <= 4) |
| O=C(O)CCc1cccc(Cc2c[nH]c(-c3cc(Oc4c(F)cc5[nH]ccc5c4F)ccc3F)n2)c1 [Example 118, 3-(3-((2-(5-((4,6-difluoro-1H-indol-5-yl)oxy)-2-fluorophenyl)-1H-imidazol-4-yl)methyl)phenyl)propanoic acid] | B (B: 5-10° C.) | B (“B” refers to AUC @10 uM between 4-12) |
| Cc1c(Oc2ccc(F)c(-c3ncc(Cc4cccc(CCC(=O)O)c4F)[nH]3)c2)c(F)cc2[nH]ccc12 [Example 119, 3-(2-fluoro-3-((2-(2-fluoro-5-((6-fluoro-4-methyl-1H-indol-5-yl)oxy)phenyl)-1H-imidazol-5-yl)methyl)phenyl)propanoic acid] | B (B: 5-10° C.) | C (“C” refers to AUC @ 10 uM <= 4) |
| O=C(O)CCc1cccc(Cc2cnc(-c3cc(Oc4c(F)c(F)c5[nH]ccc5c4F)ccc3F)[nH]2)c1F [Example 121, 3-(2-fluoro-3-((2-(2-fluoro-5-((4,6,7-trifluoro-1H-indol-5-yl)oxy)phenyl)-1H-imidazol-5-yl)methyl)phenyl)propanoic acid] | B (B: 5-10° C.) | A (“A” refers to AUC @10 uM >= 12) |
| O=C(O)CCc1cccc(Cc2cnc(-c3cc(Oc4c(F)c(F)c5[nH]ccc5c4F)ccc3F)[nH]2)c1 [Example 123, 3-(3-((2-(2-fluoro-5-((4,6,7-trifluoro-1H-indol-5-yl)oxy)phenyl)-1H-imidazol-5-yl)methyl)phenyl)propanoic acid] | B (B: 5-10° C.) | B (“B” refers to AUC @10 uM between 4-12) |
| O=C(O)CCc1cc(F)cc(Cc2cnc(-c3cc(Oc4c(F)cc5[nH]ccc5c4F)ccc3F)[nH]2)c1F [Example 124, 3-(3-((2-(5-((4,6-difluoro-1H-indol-5-yl)oxy)-2-fluorophenyl)-1H-imidazol-5-yl)methyl)-2,5-difluorophenyl)propanoic acid] | B (B: 5-10° C.) | B (“B” refers to AUC @10 uM between 4-12) |
| O=C(O)CCc1cccc(Cc2cnc(-c3cc(Oc4c(F)cc5[nH]ccc5c4CC4CCCS4(=O)=O)ccc3F)[nH]2)c1F (stereo not drawn) [Example 125, 3-(3-((2-(5-((4-((1,1-dioxidotetrahydrothiophen-2-yl)methyl)-6-fluoro-1H-indol-5-yl)oxy)-2-fluorophenyl)-1H-imidazol-5-yl)methyl)-2-fluorophenyl)propanoic acid] | A (A: T ≥ 10° C.) | A (“A” refers to AUC @10 uM >= 12) |
| CS(=O)(=O)CCc1c(Oc2ccc(F)c(-c3ncc(Cc4cccc(CCC(=O)O)c4F)[nH]3)c2)c(F)cc2[nH]ccc12 [Example 126, 3-(2-fluoro-3-((2-(2-fluoro-5-((6-fluoro-4-(2-(methylsulfonyl)ethyl)-1H-indol-5-yl)oxy)phenyl)-1H-imidazol-5-yl)methyl)phenyl)propanoic acid] | A (A: T ≥ 10° C.) | B (“B” refers to AUC @10 uM between 4-12) |
| CNC(=O)c1c(Oc2ccc(F)c(-c3ncc(Cc4cccc(CCC(=O)O)c4)[nH]3)c2)c(F)cc2[nH]ccc12 [Example 140, 3-(3-((2-(2-Fluoro-5-((6-fluoro-4-(methylcarbamoyl)-1H-indol-5-yl)oxy)phenyl)-1H-imidazol-5-yl)methyl)phenyl)propanoic acid] | B (B: 5-10° C.) | C (“C” refers to AUC @ 10 uM <= 4) |
| CCC(CC)(c1cccc(CCC(=O)O)c1)c1cnc(-c2cc(Oc3c(F)cc4[nH]ccc4c3C)ccc2F)[nH]1 [Example 159, 3-(3-(3-(2-(2-fluoro-5-((6-fluoro-4-methyl-1H-indol-5-yl)oxy)phenyl)-1H-imidazol-5-yl)pentan-3-yl)phenyl)propanoic acid] | B (B: 5-10° C.) | B (“B” refers to AUC @10 uM between 4-12) |
